According to US8512941B2, “Biological material and methods and solutions for preservation thereof” (Core Dynamics Limited, priority 2004, dated 2013):
Several values for one entry are separate records, joined by “and”; a condition that tells them apart may be missing. Identical values can stand only once.

Legend:
Assay type in all cases: cell-based
Red blood cells (RBC) [1] = experiment: Freezing RBC without thermal gradients at varying NaCl concentrations; details: for Cell Number, Thawed / MCV, Thawed: 24 h at −80° C.
Experimental: Samples volume was 1 ml. The Samples were maintained for at least 10 min at 5° C. and then transferred to a metal plate in a conventional freezing device (Forma, USA) at −80° C. for a period of 24 h. […] The percentage shown, is the thawed samples as compared with a fresh sample.

[2] = system: Mononuclear cells (MNC) derived from umbilical cord blood (UCB); experiment: MNC viability by membrane integrity (SYBR14/PI) after freeze thawing or freeze drying; details: for Mambrane integrity (%): 0.1M Trehalose in PBS
Experimental: Blood was separated on ficoll-paque gradient for 30 minutes at 1000 g. Afterwards the mononuclear layer was drawn out and washed twice in PBS for 10 minutes at 200 g. To each pellet one of the following freezing solutions was added:
2.5 ml of cell suspension were put in a 16 mm diameter glass test tube (Manara, Israel) and frozen using the MTG freezing apparatus (IMT, Israel). The temperature gradients were 1.5° C./mm and 0.428° C./mm, velocity was 0.2 mm/sec resulting in a cooling rate of 18° C./min and 5.1° C./min respectively. The first cooling rate was applied until the seeding temperature was reached. The samples were rotated at 56 rounds per minute (RPM).
After freezing samples were plunged into liquid nitrogen (LN), and then samples were either thawed at 37° C. in a water bath or put in a commercial lyophilizer (Labconco, USA) with a condenser temperature of −80° C. After drying the cells were rehydrated with DDW at 37° C.
Cells were counted using the PENTRA 60 cell counter, as described above. viability assessments were performed by evaluating the cells' membrane integrity using SYBR14 plus Propidium Iodide (PI) (Molecular Probes, USA) live/dead fluorescent staining. These stains are nucleic acid stains, SYBR14 is a membrane permeable molecule and PI can enter the cell only if the membrane is damaged.
(§1) C. In this example a freezing solution composed of 0.1M Trehalose and either 0.47 mg/ml EGCG (×2.5) or 1.89 mg/ml EGCG (×10) in PBS was used. Samples volume was 2.5 ml and samples were frozen as described above and then lyophilized. After being in the lyophilizer for 72 h, the samples were taken out and rehydrated with 2.4 ml of DDW at 37° C. After rehydration samples were assayed for CD3 using FACS (fluorescent-activated cell sorter) in accordance with the method described in Huiling et al. The Journal of Immunology 2003, 171: 4824-4829, with minor modifications.
Membrane integrity of the samples was evaluated before and after rehydration using SYBR 14 and PI (Molecular Probes, USA).

[3] = system: Mononuclear cells (MNC) derived from umbilical cord blood (UCB); experiment: CD3 expression by FACS of lyophilized, rehydrated MNC; details: 0.1M Trehalose in PBS
Experimental: as §1

Red blood cells (RBC) [4] = experiment: Hypothermic preservation of whole blood at 4° C.: cell count, MCV, ATP bioluminescence; details: on arrival, 15 minutes after adding, 1 week later, versus PBS bag
Experimental: Whole blood units, 2 days old, 500 ml each, were received from the Israeli blood services. 2 ml PBS were added to one bag and 2 ml PBS comprising 0.236 gram GTE (Taiyo, China) were added to the other. This GTE contains ˜80% catechins which contained the at least the following polyphenols: 48% EGCG, 10.8% epigallocatechin (EGC), 1.4% DL-Catechin (DL-C; (2S,3R)-2-(3,4-Dihydroxyphenol)-3,4-dihydro-1(2H)-benzopyran-3,5,7-triol), 5.6% epicatechin (EC). 2.6% gallocatechin gallate (GCG) and 14.5% epicatechin gallate (ECG). The final concentration of GTE was 0.4725 mg/ml. During delivery and storage the blood was maintained in a refrigerator at 4° C. storage.
1 ml samples were taken from each bag at the following times: (a) when the units arrived, (b) 15 minutes after adding PBS of EGCG and (c) 1 week later. The samples were counted and the mean cell value was measured using the Pentra 60 (ABX, France).
ATP content of each sample was assayed using ATP Bioluminescence Kit CLS II (Roche, Switzerland) according to the manufacturer's manual. In this assay, light emission is in direct proportion to the amount of ATP in the sample.

Red blood cells (RBC) [5] = experiment: Osmotic fragility of RBC; details: 0.9 mg/ml EGCG, 20% dextran 40 kD, 0.8% NaCl
Experimental: The control group was whole blood. Portions of each of the EGCG supplemented and control were exposed to different sodium chloride concentrations of: 0.1, 0.2, 0.3, 0.4, 0.5, 0.6, 0.7, 0.8 and 0.9% (w/v).
Free hemoglobin was measured as described above and the hemolysis percentage was calculated using Formula I. The results of this experiment are shown in FIG. 8.

## O=C(O[C@@H]1Cc2c(O)cc(O)cc2O[C@@H]1c1cc(O)c(O)c(O)c1)c1cc(O)c(O)c(O)c1 [EGCG, Epigallocatechin gallate]
Red blood cells (RBC) [1]; NaCl 0.6%
  Cell Number, % thawed compared with fresh: 100.00%
  MCV, % thawed compared with fresh: 120.22%
  Cell Number, Thawed: 4.12 10^9/ml
  MCV, Thawed: 107 μm^3
  Cell Number, Fresh: 4.12 10^9/ml
Red blood cells (RBC) [1]; NaCl 0.7%
  Cell Number, % thawed compared with fresh: 100.00%
  MCV, % thawed compared with fresh: 124.44%
  Cell Number, Thawed: 4.27 10^9/ml
  MCV, Thawed: 112 μm^3
  Cell Number, Fresh: 4.27 10^9/ml
Red blood cells (RBC) [1]; NaCl 0.8%
  Cell Number, % thawed compared with fresh: 100.00%
  MCV, % thawed compared with fresh: 118.89%
  Cell Number, Thawed: 4.71 10^9/ml
  MCV, Thawed: 107 μm^3
  Cell Number, Fresh: 4.71 10^9/ml
Red blood cells (RBC) [1]; NaCl 0.9% (Saline)
  Cell Number, % thawed compared with fresh: 75.50%
  MCV, % thawed compared with fresh: 101.11%
  Cell Number, Thawed: 3.42 10^9/ml
  MCV, Thawed: 91 μm^3
  Cell Number, Fresh: 4.53 10^9/ml
[2]; FIG. 7, 0.412, 1.03, 2.06, 4.12 mM EGCG with 0.1M trehalose in PBS, after freeze thawing and after freeze drying
  viability, effect of EGCG concentration: viability increased with EGCG concentration
[2]; Fresh with 0.47 mg/ml EGCG
  Mambrane integrity (%): 97.36 ± 2.2%
[2]; Fresh with 1.89 mg/ml EGCG
  Mambrane integrity (%): 90.01 ± 4.3%
[2]; Lyophilized with 0.47 mg/ml EGCG, rehydrated
  Mambrane integrity (%): 55.1 ± 8.5% and 59.8 ± 1.4%
[2]; Lyophilized with 1.89 mg/ml EGCG, rehydrated
  Mambrane integrity (%): 79.31 ± 8.8% and 83.62 ± 5.7% and 88.4 ± 3.2% and 88.03 ± 5.6%
[3]; Lyophilized with 0.47 mg/ml EGCG
  CD3 (%): 80%
[3]; Lyophilized with 1.89 mg/ml EGCG
  CD3 (%): 81% and 83% and 82% and 78%
Red blood cells (RBC) [4]
  Cells counts: essentially the same
  MCV: essentially the same
Red blood cells (RBC) [5]; NaCl concentrations above 0.6% (w/v)
  hemolysis versus control (whole blood): no significant difference
Red blood cells (RBC) [5]; hypotonic environment (below 0.5% NaCl)
  hemolysis versus control (whole blood): lower hemolysis rates
